Experimental data: PMC10313368 (The Journal of Clinical Investigation, 2023)

Test system: STZ-induced diabetic mice
Experiment: Vascular permeability by Evans blue tracer method in STZ mice
Assay type: in vivo, mouse
Settings: single intraocular injection 70 ng 32-134D
Experimental: STZ-induced diabetes mouse model. 8-to-10 week-old male mice received an IP injection of STZ at 40 mg/kg of body weight in 0.1M of citrate buffer (pH 4.5) for 5 consecutive days. Normal chow and 10% sucrose water were provided during this period. 10% sucrose was discontinued and replaced with regular water on experimental day 6. […]
Intraocular injections. Intravitreal injections were performed with a PLI-100A Pico-liter Microinjector (Warner Instruments, Harvard Bioscience) using pulled-glass micropipettes. Each micropipette was calibrated to deliver a 1 μl volume on depression of a foot switch. […]
Images were captured with Zeiss fluorescent microscope. Eight fields per eye (2 fields per petal) including area of neovascularization were selected and fluorescence intensity was measured by ImageJ software. […]
The eyes were enucleated and immediately immersed in 4% (wt/vol) paraformaldehyde for 2 hours at room temperature. […] Images were captured by Zeiss fluorescent microscope or confocal microscopy and fluorescence was quantified by the image J software (National Institutes […]
of Health, Bethesda, MD). Blinded quantification of the number of leaking vessels was performed by manual counting of major leakage from capillaries from retinas of each group. […] Random fields were chosen from retinas where leakages were absent to determine baseline fluorescence that arise from capillaries. […]

Which “vascular hyperpermeability in STZ mice (in words)” value does the source give for `Brc1ccc2c(-c3csc(-c4c[nH]c5c(Br)cccc45)n3)c[nH]c2c1` [32-134D, 4-(6-bromo-1H-indol-3-yl)-2-(7-bromo-1H-indol-3-yl)thiazole] here?
Its value is “effectively inhibited vascular hyperpermeability”.
